{"source": "patent US20090221024A1", "about": "“T CELL ASSAYS” (ANTITOPE LIMITED, priority 2006, published 2009)", "molecules": {"B1": {"name": "mutant T cell epitope depleted protein: T cell epitope depleted human sTNFR1 Fc fusion protein with mutations I10Q, T20R, H23P, L56A, L108T, L110H and L149D (protein, UniProt P19438 30-211, looked up, variant I10Q T20R H23P L56A L108T L110H L149D)", "extracellular domain": "LVPHLGDREKRDSVCPQGKYQHPQNNSICCRKCPKGTYLYNDCPGPGQDTDCRECESGSFTASENHARHCLSCSKCRKEMGQVEISSCTVDRDTVCGCRKNQYRHYWSENLFQCFNCSTCHNGTVHLSCQEKQNTVCTCHAGFFLRENECVSCSNCKKSDECTKLCLPQIENVKGTEDSGTT", "modifications": "extracellular domain human Fc fusion"}, "B2": {"name": "Betaferon: Betaferon (Schering AG), human interferon beta, an immunomodulatory protein (protein, UniProt P01574 22-187, looked up, variant C17S)", "Interferon beta": "MSYNLLGFLQRSSNFQSQKLLWQLNGRLEYCLKDRMNFDIPEEIKQLQQFQKEDAALTIYEMLQNIFAIFRQDSSSTGWNETIVENLLANVYHQINHLKTVLEEKLEKEDFTRGKLMSSLHLKRYYGRILHYLKAKEYSHCAWTIVRVEILRNFYFINRLTGYLRN", "modifications": "no N-terminal Met", "notes": "Betaferon (Schering AG), human interferon beta, an immunomodulatory protein"}}, "key": {"[1]": {"tested_on": "CD8^+ CD25^hi T cell depleted PBMC", "experiment": "IL-2 Elispot assay with CD8+ CD25hi T cell depleted PBMC", "format": "cell-based, human", "settings": "5 μM peptide, twenty healthy donors, SI threshold of 2, p<0.05; donors 3, 8 and 11", "procedure": "Wild type (WT) and T cell epitope depleted peptides ([…] and […], respectively) derived from human sTNFR1 sequence were synthesized (Pepscan Systems, Leystad, Netherlands) and tested using the method of example 1 in which CD8^+ CD25^hi T cell depleted PBMC were used to compare peptides derived from sTNFR-1 for the capacity to stimulate T cell responses from twenty healthy donors. Bulk cultures were established by adding 1 ml of 2-4×10^6/ml CD8^+ CD25^hi T cell depleted PBMC in AIM V culture medium to each well of a 24 well plate (Greiner Bio-One, Frickenhausen, Germany). Each peptide was tested separately against each donor by adding 1 ml 10 μM peptide to each bulk culture (final concentration of 5 μM for a 2 ml per bulk culture). For comparison, additional bulk cultures were established for untreated and positive (KLH) controls. Replicate samples (of T blasts) were removed from bulk cultures on days 6-9 and proliferation was assessed in 96 round bottom plates The data were used to assess the magnitude and kinetics of T cell responses to each peptide on days 6, 7, 8 and 9 post stimulation. […] The plates were washed with water, dried then spot counts analysed using the Immunospot Elispot analyzer, software version 3 (Cleveland, Ohio, USA). […]"}, "[2]": {"tested_on": "CD8^+ CD25^hi T cell depleted PBMC", "experiment": "Timecourse T cell proliferation assay, bulk cultures of CD8+ CD25hi T cell depleted PBMC", "format": "cell-based, human", "procedure": "Wild type (WT) and T cell epitope depleted peptides ([…] and […], respectively) derived from human sTNFR1 sequence were synthesized (Pepscan Systems, Leystad, Netherlands) and tested using the method of example 1 in which CD8^+ CD25^hi T cell depleted PBMC were used to compare peptides derived from sTNFR-1 for the capacity to stimulate T cell responses from twenty healthy donors. Bulk cultures were established by adding 1 ml of 2-4×10^6/ml CD8^+ CD25^hi T cell depleted PBMC in AIM V culture medium to each well of a 24 well plate (Greiner Bio-One, Frickenhausen, Germany). Each peptide was tested separately against each donor by adding 1 ml 10 μM peptide to each bulk culture (final concentration of 5 μM for a 2 ml per bulk culture). For comparison, additional bulk cultures were established for untreated and positive (KLH) controls. Replicate samples (of T blasts) were removed from bulk cultures on days 6-9 and proliferation was assessed in 96 round bottom plates The data were used to assess the magnitude and kinetics of T cell responses to each peptide on days 6, 7, 8 and 9 post stimulation. In addition, the same twenty healthy donors used in the time course proliferation assay were tested for IL-2 production after 8 days culture with the TNFR1 peptides using the IL-2 Elispot assay. Elispot plates were pre-wet with 70% ethanol then coated with IL-2 capture antibody (R&D systems, Minneapolis, USA) overnight at 4° C. The plates were washed twice with PBS (Invitrogen, Paisley, UK) then blocked in 1% BSA/PBS for 2 hours at room temperature. The plates were washed in PBS prior to the addition of CD8^+ CD25^hi T cell depleted PBMC at 4×10^5 cells per well and test samples at a final concentration of 5 μM. After 7 days at 37° C./5% CO2, the plates were developed. After washing with first water then PBS, IL-2 detection antibody (R&D systems, Minneapolis, USA) in PBS/1% BSA was added for 2 hours at 37° C. After further washing with PBS, streptavadin-AP (R&D systems, Minneapolis, USA) was added for 1.5 hours, the plates washed again then BCIP/NBT chromagen (R&D systems, Minneapolis, USA) added for 30 minutes. The plates were washed with water, dried then spot counts analysed using the Immunospot Elispot analyzer, software version 3 (Cleveland, Ohio, USA).\nWild type (WT) and mutant T cell epitope depleted human sTNFR1 proteins were prepared as human Fc fusion proteins as described in WO/2004/113387 with the epitope-depleted protein having mutations I10Q, T20R, H23P, L56A, L108T, L110H and L149D. Proliferation and IL-2 Elispot assays were performed as in example 2 except that 1 ml of sTNFR1 proteins were added to a final concentration of 10 μg/ml.\nCarbamazepine (Novartis Pharmaceuticals UK) and an N-acetyl iminostilbene (an analogue of carbamazepine, synthesized according to Ying et al Journal of Allergy and Clinical Immunology 2006; 118:233-241) were compared for the ability to stimulate T cell responses in a panel of healthy donors. Both compounds were tested at 25 μg/ml in separate bulk cultures for each donor according to the method of example 2. Briefly, bulk cultures were established using 2-4×10^6 CD8^+ CD25^hi T cell depleted PBMC in each well of a 24 well plate. Replicate samples (of T blasts) are removed from bulk cultures on days 5-8 and proliferation was assessed in 96 well plates. The data were used to assess the magnitude and kinetics of T cell responses to each compound.\nAs for example 2, a SI≧2 was used as a threshold for positive responses and data was further analyzed to determine the coefficient of variance (CV), standard deviation (SD) and significance (p<0.05) using parametric and non-parametric statistical analysis. Any given compound was considered to be immunogenic only if the response is statistically significant (p<0.05) with an SI≧2."}, "[3]": {"tested_on": "CD8^+ CD25^hi depleted PBMC", "experiment": "T cell proliferation assay (3HTdR) with whole CD8+ depleted vs CD8+ CD25hi depleted PBMC", "format": "cell-based, human", "settings": "peptides previously scored borderline or negative; SI≧2 threshold"}, "patients": {"tested_on": "patients", "settings": "known; cited from earlier work"}, "[4]": {"tested_on": "autologous CD8^+ CD25^hi depleted CD4^+ T cells", "experiment": "Proliferation assay, antigen-pulsed monocyte derived dendritic cells plus autologous CD8+ CD25hi depleted CD4+ T cells", "format": "cell-based, human", "settings": "44 μg/ml, DC pulsed 6 hours, 7 days, SI ≧2, p<0.05, FIG. 4", "procedure": "(§1) Monocytes were isolated from PBMC by adherence to tissue culture plastic (>90% CD14^+) and were cultured in 24 well plates in AIM V medium with 5% heat inactivated human AB serum (Autogen Bioclear, Caine, Wiltshire, UK) (growth medium) at an approximate density of 1×10^6 per well (24 well plate). Monocytes were incubated in growth medium containing human IL-4 (Peprotech, Rocky Hill, N.J., USA) and GM-CSF (Peprotech, Rocky Hill, N.J., USA) for 3 days. On day 3, 44 μg/ml of Betaferon (Schering AG, Berlin, Germany) were added in 0.5 ml test buffer plus 3% heat inactivated human AB serum and 25 mM (final concentration) HEPES pH 8. Control wells containing 50 μg/ml KLH or no antigen (untreated cells) were incubated in 1 ml PBS+0.01% Tween 20 plus 3% heat inactivated human AB serum (standard buffer). DC were incubated with antigen for 6 hours after which DCs were washed 6 times to remove exogenous IFN beta. […]\n(§2) On day 4, autologous CD8^+ CD25^hi depleted CD4^+ T cells were isolated by negative selection from PBMC (Dynal Human CD4^+ Negative Isolation Kit, Wirral, UK) and were then added to DCs at 1×10^5 per well in both proliferation and Elispot plates. Elispot plates were incubated for 6 days before developing (as in example 2) and proliferation plates were incubated for 7 days before proliferation was measured by incorporation of 3HTdR (a 6 hour pulse at 1 μCi/well). […]"}, "[5]": {"tested_on": "autologous CD8^+ CD25^hi depleted CD4^+ T cells", "experiment": "IL-2 Elispot assay, antigen-pulsed monocyte derived dendritic cells plus autologous CD8+ CD25hi depleted CD4+ T cells", "format": "cell-based, human", "settings": "44 μg/ml, DC pulsed 6 hours, 6 days, SI ≧2, p<0.05, FIG. 4", "procedure": "as §1, §2"}, "[6]": {"settings": "5 μM peptide, donors 3, 8 and 11"}}, "data": [{"molecule": "HLRHCLSCSKCRKEM [WT peptide]", "values": [{"measurement": "donors giving responses, IL-2 Elispot assay", "setting": "[1]", "value": "three"}, {"measurement": "peak proliferation responses, time", "setting": "[2]; [6]", "value": "7 days after peptide addition"}, {"measurement": "score as a T cell epitope if proliferation measured at timepoints 8 or 9 days after peptide addition", "setting": "[2]; [6]", "value": "negative"}, {"measurement": "donors giving responses, proliferation assay", "setting": "[2]; 5 μM peptide, twenty healthy donors, days 6-9, SI threshold of 2, p<0.05, donors 3, 8 and 11", "value": "three"}]}, {"molecule": "PGQTATITCSGHALG [peptide 1]", "values": [{"measurement": "detection of T cell epitopes after CD25^hi T cell depletion", "setting": "[3]", "value": "allowed detection of T cell epitopes"}]}, {"molecule": "CC(=O)N1c2ccccc2C=Cc2ccccc21", "note": "[N-acetyl iminostilbene]", "values": [{"measurement": "donors stimulated, compared", "setting": "[2]; 25 μg/ml, days 5-8, panel of healthy donors, SI≧2, p<0.05", "value": "fewer donors than carbamazepine"}]}, {"molecule": "NC(=O)N1c2ccccc2C=Cc2ccccc21", "note": "[carbamazepine, Carbamazepine]", "values": [{"measurement": "additional responses detected on days 6 and 7", "setting": "[2]; 25 μg/ml", "value": "one"}, {"measurement": "day on which the majority of T cell responses are induced", "setting": "[2]; 25 μg/ml, days 5-8", "value": 5, "unit": "days"}, {"measurement": "delayed allergic responses in patients", "setting": "patients", "value": "potent inducer of delayed allergic responses"}]}, {"molecule": "GDKFVSWYQQGSGQS [compound 2]", "values": [{"measurement": "detection of T cell epitopes after CD25^hi T cell depletion", "setting": "[3]", "value": "allowed detection of T cell epitopes"}]}, {"molecule": "B1", "values": [{"measurement": "donors with significant T cell responses, proliferation assay", "setting": "[2]; whole protein 10 μg/ml, timecourse, FIG. 3", "value": "not"}]}, {"molecule": "B2", "values": [{"measurement": "donors with significant T cell responses, proliferation assay", "setting": "[4]", "value": "4 out of 29"}, {"measurement": "donors with significant T cell responses, IL-2 Elispot assay", "setting": "[5]", "value": "4 out of 29"}]}]}
